pEC50: −log10 of the molar value.
target: T1, h FPR2 (Homo sapiens, UniProt P25090); experiment: Agonistic activity in hFPR2-Aq-CHO cells (FLIPR Calcium 5 fluorescence assay); assay type: cell-based; conditions: 11 point half log dilution, final assay concentration from 10µM
T1 construct: expressed in transfected cells
T1 sequence (P25090 1-351): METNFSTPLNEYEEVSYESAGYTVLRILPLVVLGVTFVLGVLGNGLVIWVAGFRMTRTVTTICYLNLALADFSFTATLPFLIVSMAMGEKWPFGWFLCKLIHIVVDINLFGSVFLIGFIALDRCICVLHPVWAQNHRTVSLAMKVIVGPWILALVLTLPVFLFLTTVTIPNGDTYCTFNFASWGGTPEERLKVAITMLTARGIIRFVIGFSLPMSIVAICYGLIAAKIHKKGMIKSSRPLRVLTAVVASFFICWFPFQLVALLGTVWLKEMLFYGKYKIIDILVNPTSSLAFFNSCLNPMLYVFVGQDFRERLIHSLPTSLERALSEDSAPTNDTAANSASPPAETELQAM
Summary of the method: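 hFPR2-Aq-CHO cells were loaded with Calcium 5 dye for 30 min at 37 °C and equilibrated 10 min at room temperature. Compound (11 points, 10 µM to 100 pM final) was added in HBSS/HEPES/probenecid buffer pH 7.4. Fluorescence rise over basal across 5 min, relative to no-compound wells, gave EC50.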

pEC50 | Structure (SMILES)
7.85 | O=C(Nc1ccc(Cl)cc1)N[C@@H]1CCN(CC2CCOCC2)C[C@H]1c1ccc(Cl)s1 (single isomer, unassigned) [Ex-85, trans-1-(4-chlorophenyl)-3-(3-(5-chlorothiophen-2-yl)-1-((tetrahydro-2H-pyran-4-yl)methyl)piperidin-4-yl)urea]
9.40 | COc1ccc([C@@H]2CN(C(=O)c3cnccc3C(F)(F)F)CC[C@H]2NC(=O)Nc2ccc(Cl)cc2)nc1 (single isomer, unassigned) [Ex-99, trans-1-(4-chlorophenyl)-3-[3-(5-methoxypyridin-2-yl)-1-{[4-(trifluoromethyl)pyridin-3-yl]carbonyl}piperidin-4-yl]urea]
10.52 | COc1ccc([C@@H]2CN(CC3CCNCC3)CC[C@H]2NC(=O)Nc2ccc(Cl)cc2)nc1 (single isomer, unassigned) [Ex-124, trans-1-(4-chlorophenyl)-3-(3-(5-methoxypyridin-2-yl)-1-(piperidin-4-ylmethyl)piperidin-4-yl)urea]
8.15 | COc1ccc([C@@H]2CN(C(=O)C3CC(O)C3)CC[C@H]2NC(=O)Nc2cc(C)ns2)nc1 (single isomer, unassigned) [Ex-138, trans-1-[1-(3-Hydroxy-cyclobutanecarbonyl)-3-(5-methoxy-pyridin-2-yl)-piperidin-4-yl]-3-(3-methyl-isothiazol-5-yl)-urea]
9.05 | COc1ccc([C@@H]2CNCC[C@H]2NC(=O)Nc2ccc(Cl)cc2)nc1 (single isomer, unassigned) [Ex-168, trans-1-(4-Chlorophenyl)-3-[3-(5-methoxy-pyridin-2-yl)-piperidin-4-yl]-urea]
9.52 | COc1ccc([C@@H]2CN(CC(N)=O)CC[C@H]2NC(=O)Nc2ccc(Cl)cc2)nc1 (single isomer, unassigned) [Ex-170, trans-2-[4-[[(4-Chlorophenyl)-carbamoyl]amino]-3-(5-methoxy-pyridin-2-yl)-piperidin-1-yl]-acetamide]
9.74 | COc1ccc([C@@H]2CN(CC3CC3)CC[C@H]2NC(=O)Nc2ccc(Cl)cc2)nc1 (single isomer, unassigned) [Ex-172, trans-1-(4-Chlorophenyl)-3-[1-(cyclopropyl-methyl)-3-(5-methoxy-pyridin-2-yl)-piperidin-4-yl]-urea]
8.85 | COc1ccc([C@@H]2CN(CC(F)F)CC[C@H]2NC(=O)Nc2ccc(C#N)cc2)nc1 (single isomer, unassigned) [Ex-174, trans-1-(4-Cyano-phenyl)-3-[1-(2,2-difluoro-ethyl)-3-(5-methoxy-pyridin-2-yl)-piperidin-4-yl]-urea]
8.85 | COc1ccc([C@@H]2CN(CC(C)(C)O)CC[C@H]2NC(=O)Nc2cc(C)ns2)nc1 (single isomer, unassigned) [Ex-177, trans-1-[1-(2-Hydroxy-2-methyl-propyl)-3-(5-methoxy-pyridin-2-yl)-piperidin-4-yl]-3-(3-methyl-isothiazol-5-yl)-urea]
9.15 | COc1ccc([C@@H]2CN(CC(C)(C)O)CC[C@H]2NC(=O)Nc2ccc(Cl)cc2)nc1 (single isomer, unassigned) [Ex-179, trans-1-(4-Chlorophenyl)-3-[1-(2-hydroxy-2-methyl-propyl)-3-(5-methoxy-pyridin-2-yl)-piperidin-4-yl]-urea]
7.05 | COc1ccc([C@@H]2CN(C(=O)C3CC(O)C3)CC[C@H]2NC(=O)Nc2cc(C)ns2)nc1 (single isomer, unassigned) [Ex-183, trans-1-[1'-(3-hydroxy-cyclobutanecarbonyl)-5-methoxy-1',2',3',4',5',6'-hexahydro-[2,3']bipyridinyl-4'-yl]-3-(3-methyl-isothiazol-5-yl)-urea]
8.85 | COc1ccc([C@@H]2CN(C(=O)C3CCN(C)CC3)CC[C@H]2NC(=O)Nc2ccc(Cl)cc2)nc1 (single isomer, unassigned) [Ex-187, trans-1-(4-chlorophenyl)-3-[3-(5-methoxypyridin-2-yl)-1-(1-methylpiperidine-4-carbonyl)piperidin-4-yl]urea]
7.54 | COc1ccc([C@@H]2CN(C(=O)C3CCN(C)CC3)CC[C@H]2NC(=O)Nc2ccc(Cl)cc2)nc1 (single isomer, unassigned) [Ex-188, trans-1-(4-chlorophenyl)-3-[3-(5-methoxypyridin-2-yl)-1-(1-methylpiperidine-4-carbonyl)piperidin-4-yl]urea]
8.77 | COc1ccc([C@@H]2CN(C(=O)CN(C)C)CC[C@H]2NC(=O)Nc2ccc(Cl)cc2)nc1 (single isomer, unassigned) [Ex-189, trans-1-(4-chlorophenyl)-3-[1-[2-(dimethylamino)acetyl]-3-(5-methoxypyridin-2-yl)piperidin-4-yl]urea]
9.15 | COCCCN1CC[C@@H](NC(=O)Nc2ccc(Cl)cc2)[C@H](c2ccc(OC)cn2)C1 (single isomer, unassigned) [Ex-191, trans-1-(4-chlorophenyl)-3-[1-(3-methoxypropyl)-3-(5-methoxypyridin-2-yl)piperidin-4-yl]urea]
7.24 | COCCCN1CC[C@@H](NC(=O)Nc2ccc(Cl)cc2)[C@H](c2ccc(OC)cn2)C1 (single isomer, unassigned) [Ex-192, trans-1-(4-chlorophenyl)-3-[1-(3-methoxypropyl)-3-(5-methoxypyridin-2-yl)piperidin-4-yl]urea]
9.30 | COc1ccc([C@@H]2CN(CC3CC(OC)C3)CC[C@H]2NC(=O)Nc2ccc(Cl)cc2)nc1 (single isomer, unassigned) [Ex-195, trans-1-(4-chloro-phenyl)-3-[5-methoxy-1'-(3-methoxy-cyclobutylmethyl)-1',2',3',4',5',6'-hexahydro-[2,3']bipyridinyl-4'-yl]-urea]
8.85 | COc1ccc([C@@H]2CN(CC3CC(OC)C3)CC[C@H]2NC(=O)Nc2ccc(Cl)cc2)nc1 (single isomer, unassigned) [Ex-202, trans-1-(4-chloro-phenyl)-3-[5-methoxy-1'-(3-methoxy-cyclobutylmethyl)-1',2',3',4',5',6'-hexahydro-[2,3']bipyridinyl-4'-yl]-urea]
9.15 | COc1ccc([C@@H]2CN(CC3CC(O)C3)CC[C@H]2NC(=O)Nc2ccc(Cl)cc2)nc1 (single isomer, unassigned) [Ex-203, trans-1-(4-chloro-phenyl)-3-[1'-(3-hydroxy-cyclobutylmethyl)-5-methoxy-1',2',3',4',5',6'-hexahydro-[2,3']bipyridinyl-4'-yl]-urea]
8.40 | COc1ccc([C@@H]2CN(CC3CC(O)C3)CC[C@H]2NC(=O)Nc2ccc(Cl)cc2)nc1 (single isomer, unassigned) [Ex-205, trans-1-(4-chloro-phenyl)-3-[1'-(3-hydroxy-cyclobutylmethyl)-5-methoxy-1',2',3',4',5',6'-hexahydro-[2,3']bipyridinyl-4'-yl]-urea]
9.92 | COc1ccc([C@H]2CN(CC3(C(N)=O)CC3)CC[C@@H]2NC(=O)Nc2ccc(Cl)cc2)nc1 [Ex-143, trans-1-[[4-[[(4-Chlorophenyl)-carbamoyl]amino]-3-(5-methoxy-pyridin-2-yl)-piperidin-1-yl]-methyl]-cyclopropane-1-carboxyfic acid amide]
8.70 | COc1ccc([C@H]2CN(CCO)CC[C@@H]2NC(=O)Nc2ccc(Cl)cc2)nc1 [Ex-206]
9.10 | COc1ccc([C@H]2CN(CC(F)F)CC[C@@H]2NC(=O)Nc2cc(C)ns2)nc1 [Ex-214]
9.52 | CNC(=O)CN1CC[C@H](NC(=O)Nc2ccc(Cl)cc2)[C@@H](c2ccc(OC)cn2)C1 [Ex-215]
8.70 | COc1ccc([C@H]2CN(CC(=O)N(C)C)CC[C@@H]2NC(=O)Nc2ccc(Cl)cc2)nc1 [Ex-216]
8.10 | COc1ccc([C@H]2CN(C(C)(C)C(N)=O)CC[C@@H]2NC(=O)Nc2ccc(Cl)cc2)nc1 [Ex-225]

Structure (SMILES) | pEC50
COc1ccc([C@@H]2CN(C(=O)c3ccc(C(F)(F)F)nc3)CC[C@H]2NC(=O)Nc2ccc(Cl)cc2)nc1 (single isomer, unassigned) [Ex-100, trans-1-(4-chlorophenyl)-3-[3-(5-methoxypyridin-2-yl)-1-{[6-(trifluoromethyl)pyridin-3-yl]carbonyl}piperidin-4-yl]urea] | 7.03
COc1ccc([C@@H]2CN(C(=O)c3ccc(C(F)(F)F)nc3)CC[C@H]2NC(=O)Nc2ccc(Cl)cc2)nc1 (single isomer, unassigned) [Ex-101, trans-1-(4-chlorophenyl)-3-[(5-methoxypyridin-2-yl)-1-{[6-(trifluoromethyl)pyridin-3-yl]carbonyl}piperidin-4-yl]urea] | 9.96
